Experiments:
Mus musculus [1] = test: Toxicity in ip dosed mouse assessed as sedative action; assay type: organism-based; conditions: in vivo
Mus musculus [2] = test: Anticonvulsant activity in ip dosed albino mouse assessed as dose causing >25% increase in maximal electroshock-induced maximal extensor seizure relative to untreated control; assay type: functional
[3] = Acute toxicity in ip dosed albino mouse measured within 24 hrs; assay type: organism-based; conditions: in vivo
Mus musculus [4] = test: Toxicity in albino mouse assessed as body-temperature variation at 10 mg/kg, ip measured 20 mins after dl-amphetamine sulfate injection dosed 30 mins before dl-amphetamine sulfate injection; assay type: organism-based; set-up: dose 10 mg/kg, route intraperitoneal; conditions: in vivo
[5] = Antitrypatamine activity in isolated Wistar rat caudal artery assessed as dose required to decrease 20 to 50% of […]-induced effect per 6 mL/min after 15 mins; assay type: functional
Ileum [6] = test: Antiacetylcholine activity in guinea pig ileum assessed as dose required to decrease 50 to 100% of acetylcholine-induced effect treated 5 mins before acetylcholine addition; assay type: functional, Cavia porcellus
Mus musculus [7] = test: Neurotoxicity in albino mouse at 10 mg/kg, po up to 5 mins by rotorod test relative to control; assay type: toxicity, organism-based; set-up: dose 10 mg/kg, route oral; conditions: in vivo
Ileum [8] = test: Antihistamine activity in guinea pig ileum assessed as dose required to decrease 50 to 100% of histamine induced effect treated 5 mins before histamine addition; assay type: functional, Cavia porcellus
[9] = Antinoradrenaline activity in isolated Wistar rat caudal artery assessed as dose required to decrease 20 to 50% of noradrenaline-induced effect per 6 mL/min after 15 mins; assay type: functional
Mus musculus [10] = test: Toxicity in ip dosed albino mouse assessed as barbiturate-induced sleep by measuring loss of righting reflex relative to control; assay type: organism-based; conditions: in vivo
Mus musculus [11] = test: Toxicity in albino mouse assessed as translatory movements at 10 mg/kg, ip relative to control; assay type: organism-based; set-up: dose 10 mg/kg, route intraperitoneal; conditions: in vivo
Mus musculus [12] = test: Toxicity in ip dosed albino mouse assessed as dose required to increase 25% of dl-amphetamine sulfate-induced death; assay type: organism-based; conditions: in vivo
Mus musculus [13] = test: Toxicity in ip dosed albino mouse assessed as barbiturate-induced sleep by measuring loss of righting reflex administered 45 mins before barbiturate challenge relative to control; assay type: organism-based; conditions: in vivo, 0.75 h
Mus musculus [14] = test: Toxicity in albino mouse assessed as translatory movements at 5 mg/kg, ip relative to control; assay type: organism-based; set-up: dose 5 mg/kg, route intraperitoneal; conditions: in vivo
Mus musculus [15] = test: Neurotoxicity in albino mouse at 5 mg/kg, po up to 5 mins by rotorod test relative to control; assay type: toxicity, organism-based; set-up: dose 5 mg/kg, route oral; conditions: in vivo
Mus musculus [16] = test: Toxicity in albino mouse assessed as body-temperature variation at 5 mg/kg, ip measured 20 mins after dl-amphetamine sulfate injection dosed 30 mins before dl-amphetamine sulfate injection; assay type: organism-based; set-up: dose 5 mg/kg, route intraperitoneal; conditions: in vivo
Mus musculus [17] = test: Anticonvulsant activity in ip dosed albino mouse assessed as dose causing total prevention of maximal electroshock-induced maximal extensor seizure; assay type: functional

Compound	Activity (Mus musculus [1])	Activity (Mus musculus [2])	LD50 at 24 h [3]	temperature change (Mus musculus [4])	Activity [5]	Activity (Ileum [6])	Activity (Mus musculus [7])	Activity (Ileum [8])	Activity [9]	Activity (Mus musculus [10])	Activity (Mus musculus [11])	Activity (Mus musculus [12])	Activity (Mus musculus [13])	Activity (Mus musculus [14])	Activity (Mus musculus [15])	temperature change (Mus musculus [16])	Activity (Mus musculus [17])
CN(C)CCN1CCN(c2ccccc2)c2ccccc2C1=O	Non-toxic	50 mg/kg	100 mg/kg	0.6 °C	50 µg/min	100 µg/mL	-6%	50 µg/mL	200 µg/min	4%	-30%	10 mg/kg	15%	–	–	–	–
CN(C)CCCN1CCN(c2ccccc2)c2ccccc2C1=O	Non-toxic	10 mg/kg	116 mg/kg	–	50 µg/min	100 µg/mL	-12%	100 µg/mL	160 µg/min	35%	-15%	–	10%	–	–	–	–
CC(CN(C)C)N1CCN(c2ccccc2)c2ccccc2C1=O (stereo unspecified)	Non-toxic	12 mg/kg	130 mg/kg	–	50 µg/min	50 µg/mL	-25%	50 µg/mL	160 µg/min	20%	4%	–	12.5%	–	–	–	–
CCN(CC)CCN1CCN(c2ccccc2)c2ccccc2C1=O	Non-toxic	5 mg/kg	75 mg/kg	–	50 µg/min	100 µg/mL	11%	100 µg/mL	80 µg/min	40%	1%	–	10%	–	–	–	–
O=C1c2ccccc2N(c2ccccc2)CCN1CCN1CCCC1	Non-toxic	–	80 mg/kg	-0.2 °C	50 µg/min	100 µg/mL	-32%	50 µg/mL	15 µg/min	60%	-10%	–	20%	–	–	–	–
O=C1c2ccccc2N(c2ccccc2)CCN1CCN1CCCCC1	Non-toxic	25 mg/kg	75 mg/kg	1.4 °C	25 µg/min	100 µg/mL	-27%	50 µg/mL	25 µg/min	45%	-11%	10 mg/kg	20%	–	–	–	–
C[N+](C)(C)CCN1CCN(c2ccccc2)c2ccccc2C1=O.[I-]	Non-toxic	15 mg/kg	35 mg/kg	–	50 µg/min	50 µg/mL	–	50 µg/mL	50 µg/min	-40%	–	5 mg/kg	15%	20%	-21%	-0.3 °C	–
C[N+](C)(C)CCCN1CCN(c2ccccc2)c2ccccc2C1=O.[I-]	Non-toxic	10 mg/kg	50 mg/kg	–	50 µg/min	50 µg/mL	–	50 µg/mL	100 µg/min	-25%	–	5 mg/kg	10%	-5%	70%	1.2 °C	–
CC(C[N+](C)(C)C)N1CCN(c2ccccc2)c2ccccc2C1=O.[I-] (stereo unspecified)	Non-toxic	5 mg/kg	15 mg/kg	–	15 µg/min	200 µg/mL	–	50 µg/mL	50 µg/min	-15%	–	–	5%	1%	-7%	0.3 °C	–
CC[N+](C)(CC)CCN1CCN(c2ccccc2)c2ccccc2C1=O.[I-]	Non-toxic	5 mg/kg	15 mg/kg	–	15 µg/min	50 µg/mL	–	50 µg/mL	50 µg/min	-40%	–	3 mg/kg	5%	-3%	20%	1.4 °C	–
C[N+]1(CCN2CCN(c3ccccc3)c3ccccc3C2=O)CCCC1.[I-]	Non-toxic	3 mg/kg	10 mg/kg	–	50 µg/min	100 µg/mL	11%	50 µg/mL	5 µg/min	30%	–	3 mg/kg	5%	-8%	–	1.6 °C	–
C[N+]1(CCN2CCN(c3ccccc3)c3ccccc3C2=O)CCCCC1.[I-]	Non-toxic	–	15 mg/kg	–	50 µg/min	50 µg/mL	8%	200 µg/mL	25 µg/min	20%	–	–	3%	-20%	–	0.9 °C	–
O=C1NCCN(c2ccc([N+](=O)[O-])cc2)c2ccc([N+](=O)[O-])cc21	Non-toxic	–	> 400 mg/kg	1 °C	–	200 µg/mL	-45%	200 µg/mL	–	40%	-21%	–	50%	–	–	–	–
Nc1ccc2c(c1)C(=O)NCCN2c1ccc([N+](=O)[O-])cc1	Non-toxic	–	> 400 mg/kg	1.2 °C	–	50 µg/mL	39%	200 µg/mL	–	70%	-15%	–	50%	–	–	–	–
Nc1ccc(N2CCNC(=O)c3ccccc32)cc1	Non-toxic	–	> 400 mg/kg	1.4 °C	–	200 µg/mL	-20%	200 µg/mL	–	90%	2%	–	50%	–	–	–	–
CNC1=Nc2ccc(Cl)cc2C(c2ccccc2)=[N+]([O-])C1 [CHLORDIAZEPOXIDE]	Non-toxic	–	780 mg/kg	–	20 µg/min	3 µg/mL	-50%	3 µg/mL	18 µg/min	–	-40%	–	–	–	–	–	90 mg/kg
CN1C(=O)CN=C(c2ccccc2)c2cc(Cl)ccc21 [DIAZEPAM]	Non-toxic	–	–	–	–	–	-40%	4 µg/mL	–	–	-50%	–	–	–	–	–	50 mg/kg

Source: ChEMBL document CHEMBL3272273, “Synthesis and pharmacological activity and some derivatives of 1-phenyl-1,2,3,4-tetrahydro-5H-1,4-benzodiazepin-5-one” (J Med Chem, 1978)
